Reference: US20220380334A1, “(-) - CIS TETRAHYDROCANNABINOL ((-) - CIS-THC) FOR USE AS A MEDICAMENT” (GW Research Limited, priority 2019, published 2022)
Entries after “also recorded” stand apart in the source; their conditions may differ. Marks after values point to notes of the source that are not given here.

Tests used:
[1] = test system: withdrawal threshold on hot plate at 52° C.; assay: Mouse hotplate test of anti-nociceptive potential; format: in vivo; details: for Withdrawal threshold (sec) Mean +/− SEM: hot plate 52° C.
Description: Mice underwent a minimum habituation period of 7 days prior to study commencement. Naïve mice were acclimatised to the procedure room in their home cages, with food and water available ad libitum.
Animals were treated with either treatment vehicle, (−)-cis-THC at 1, 15, 50, 100, 125 and 150 mg/kg at 10 ml/kg i.p. or Morphine 10 mg/kg or Morphine vehicle (Saline) at 10 ml/kg i.p.
Animals were placed onto a hot plate set at 52° C. and time to withdrawal threshold (first response of lifting, licking front or hind paws or trying to escape) was taken at 1-hour post treatment, or at 0.5 hour after the positive control.
Animals were culled by a schedule 1 method, immediately after the measurement.
Data were analysed by comparing withdrawal thresholds back to Vehicle treated group

[2] = test system: tonic hind limb convulsions; assay: Mouse supramaximal electroshock seizure (MES) model of generalized seizures; format: in vivo
Description: Mice were administered MES (30 mA, rectangular current: 0.6 ms pulse width, 0.2 s duration, 50 Hz) via corneal electrodes connected to a constant current shock generator (Ugo Basile: type 7801) to reliably produce tonic hind limb convulsions. The number of tonic convulsions was recorded.
Sixteen mice were studied per group. The test was performed blind.
The test substance, (−)-cis-THC, was evaluated at 4 doses (10, 50, 100 and 150 mg/kg), administered i.p. 60 minutes before MES, and compared with a vehicle control group (administered under the same experimental conditions).
Valproate (positive control) was administered at 250 mg/kg i.p. 30 minutes before MES, was used as a reference substance and was compared with a vehicle group (administered i.p. 60 minutes before MES).
Data was analysed by comparing treated groups with the appropriate vehicle control using 2-tailed Fisher's Exact Probability tests (p<0.05 considered significant).

[3] = depending on the assay; cited from earlier work

CCCCCc1cc(O)c2c(c1)OC(C)(C)[C@H]1CCC(C)=C[C@@H]21 (relative stereo) [(−)-cis-THC, (−)-cis-delta-9-tetrahydrocannabinol]
Withdrawal threshold (sec) Mean +/− SEM ([1]; 1 mg/kg I.P., 1-hour post treatment): 10.99 ± 0.92 s | Withdrawal threshold (sec) Mean +/− SEM ([1]; 15 mg/kg I.P., 1-hour post treatment): 10.22 ± 0.94 s | Withdrawal threshold (sec) Mean +/− SEM ([1]; 50 mg/kg I.P., 1-hour post treatment): 12.68 ± 1.11 s | Withdrawal threshold (sec) Mean +/− SEM ([1]; 100 mg/kg I.P., 1-hour post treatment): 14.23 ± 1.37 s | Withdrawal threshold (sec) Mean +/− SEM ([1]; 125 mg/kg I.P., 1-hour post treatment): 15.28 ± 1.19 s | anti-nociceptive effect in the hotplate test (overall, in words) ([1]; 1 to 150 mg/kg i.p.): dose-related increase in withdrawal threshold; also recorded: significant anti-nociceptive effect | % change from vehicle in number of tonic clonic seizures after MES ([2]; 10 mg/kg I.P., pre-treatment time 60 mins): No effect | % change from vehicle in number of tonic clonic seizures after MES ([2]; 10 mg/kg I.P., pre-treatment time 60 mins, listed as (-)-cis-THC): 0.0% | % change from vehicle in number of tonic clonic seizures after MES ([2]; 50 mg/kg I.P., pre-treatment time 60 mins): 25% | % change from vehicle in number of tonic clonic seizures after MES ([2]; 50 mg/kg I.P., pre-treatment time 60 mins, listed as (-)-cis-THC): 25.0% | % change from vehicle in number of tonic clonic seizures after MES ([2]; 100 mg/kg I.P., pre-treatment time 60 mins): 6.3% | % change from vehicle in number of tonic clonic seizures after MES ([2]; 150 mg/kg I.P., pre-treatment time 60 mins): 25% | % change from vehicle in number of tonic clonic seizures after MES ([2]; 150 mg/kg I.P., pre-treatment time 60 mins, listed as (-)-cis-THC): 25.0% | anti-convulsant effect in the MES model (overall conclusion) ([2]; 10, 50, 100 and 150 mg/kg i.p.): did not produce a significant anti-convulsant effect

CCCCCc1cc(O)c2c(c1)OC(C)(C)[C@@H]1CCC(C)=C[C@@H]21 [(−)-trans-THC, (−)-trans-delta-9-tetrahydrocannabinol]
potency relative to the (+)-trans-THC isomer [3]: 6-100 times

CN1CC[C@]23c4c5ccc(O)c4O[C@H]2[C@@H](O)C=C[C@H]3[C@H]1C5 [Morphine, reference compound]
Withdrawal threshold (sec) Mean +/− SEM ([1]; 10 mg/kg I.P., 0.5 hour after treatment): 23.17 +/− 1.54 *** sec | Withdrawal threshold (sec) Mean +/− SEM ([1]; 10 mg/kg I.P., 0.5 hour after treatment, listed as morphine): significant increase

CCCC(CCC)C(=O)O [Valproate, reference compound]
% change from vehicle in number of tonic clonic seizures after MES ([2]; 250 mg/kg I.P., pre-treatment time 30 mins): 93.8%
